Patent publication US20170165259A1, “COMBINED MODULATION OF IRE1” (THE REGENTS OF THE UNIVERSITY OF CALIFORNIA, priority 2014, published 2017)

Assays:
endogenous IRE1α [1] = test: IRE1α auto-phosphorylation immunoblot in INS-1 cells under ER stress; type: cell-based, rat
Procedure: (§1) FIGS. 5A-5E. […] (FIG. 5C) EtBr-stained agarose gel of XBP1 complementary DNA (cDNA) amplicons from the INS-1 cells described in (B).
(§2) To further explore how IRE1α modulators affect the kinase and RNase activities of endogenous IRE1α under ER stress, in vivo studies using INS-1 rat insulinoma cell lines, which are derived from insulin-producing pancreatic β-cell tumors and contain large well-developed ERs, were conducted.
For protein analysis, cells were lysed in M-PER buffer (Thermo Scientific) plus complete EDTA-free protease inhibitor (Roche) and phosphatase inhibitor cocktail (Sigma). The concentration of samples was determined using BCA Protein Assay (Thermo). […] Gels were run using MES buffer and transferred onto nitrocellulose transfer membrane using an XCell II™ Blot Module. Blocking, antibody incubation, and washing were done in PBS or TBS with 0.05% Tween-20 (v/v) and 5% (w/v) non-fat dry milk or BSA, or blocking buffer (Licor-Odyssey). Antibodies used were: mouse anti-Actin (Sigma-Aldrich); rabbit anti-cleaved Caspase-2 (Abcam); mouse anti-GAPDH, anti-c-Myc, anti-rabbit, anti-proinsulin, and anti-IRE1α (Santa Cruz Biotechnology); anti-phospho-IRE1α and anti-full length Caspase-2 (Novus Biologicals); and rabbit anti-Caspase-3, anti-JNK, anti-eIF2a, anti-phospho-eIF2a, and mouse anti-phospho-JNK (Cell Signaling). Antibody binding was detected by using near-infrared-dye-conjugated secondary antibodies (Licor) on the LI-COR Odyssey scanner or visualized by capturing on a CL-XPosure film using ECL SuperSignal West Dura Extended Duration Substrate (both from Thermo Scientific).

endogenous IRE1α [2] = test: XBP1 mRNA splicing in INS-1 cells under ER stress; type: cell-based, rat
Procedure: as §1, §2

[3] = tested on: IRE1α mutants that lack kinase activity; details: cited from earlier work
IRE1α* [4] = target: T1, IRE1α* (Homo sapiens, UniProt O75460); test: XBP1 RNA minisubstrate (FRET-quenched) RNase assay; type: biochemical; details: for IRE1α* RNase activity (XBP1 RNA cleavage), effect in words: in vitro
T1 construct: human IRE1α (residues 469-977, IRE1α*); made in house; host or cells: SF9 insect cells, Bac-to-Bac baculovirus

IRE1α* [5] = target: T1, IRE1α*; test: IRE1α* kinase assay (96-well dot blot, 32γ-ATP, STK peptide substrate 2); type: biochemical
Procedure: FIGS. 16A-16C. Divergent modulation of IRE1α RNase activity using distinct classes of kinase inhibitors. (FIG. 16A) KIRA6 inhibition of IRE1α* kinase activity. IC50 values determined by fitting percent kinase activity (n=3); Urea PAGE of competition cleavage by IRE1α* of XBP1 RNA mini-substrate (FIG. 16B) and α^32P-labeled Ins2 RNA (FIG. 16C), under indicated [KIRA6]; IC50s determined by fitting in-gel fluorescence intensities (XBP1) and phosphorimager (Ins2).
KIRAs are tested for ability to inhibit IRE1α* kinase and RNase activities in vitro. The XBP1 minisubstrate assay shown in FIGS. 1B-1C, is amenable to 96- or 384-well format, and is used to determine RNase IC50s. In parallel, kinase IC50s for all KIRAs are determined in a 96-well dot blot assay with 32γ-ATP and STK peptide substrate 2 as substrates. Time-dependence of inhibition is determined for all electrophile-containing KIRAs. RNase and kinase assays have been used to profile the KIRAs in FIG. 13, showing a strong correlation between kinase and RNase IC50s. […] Thus, the structure-based design strategy uses these two kinases as counter targets (described below).

yeast and murine IRE1α = details: cited from earlier work
IRE1α* [6] = target: T1, IRE1α*; test: DSS crosslinking, oligomer/monomer ratio of IRE1α*; type: biochemical; details: saturating inhibitor, DSS crosslinker
IRE1α* [7] = target: T1, IRE1α*; test: IRE1α* autophosphorylation kinase assay in vitro; type: biochemical
IRE1α* [8] = target: T1, IRE1α*; test: ICAT cysteine footprinting (alkylation rates); type: binding; details: inhibitor 20 μM
Description: FIGS. 3A-3D. Characterization of GP146's interaction with the ATP-binding site of IRE1α. (FIG. 3A) A crystal structure of the kinase domain of human IRE1α bound to ADP; the native cysteine residues that were monitored using the ICAT footprinting method are labeled and shown as thick rods and the DFG-motif is shown as thin bars; cys715 is part of the hinge region of IRE1α and its side chain partially occupies the ATP-binding site; cys645 is in the activation loop, two residues away from the DFG-motif; cys572 is located on the top of the N-terminal lobe of the catalytic domain and is distant from the ATP-binding site.
As Cys645 and Cys715 are located within the ATP-binding cleft of IRE1α, the accessibility of these residues would be expected to be affected by ligands that occupy this site, while Cys572 is a solvent-exposed residue located on the top of the N-terminal lobe of the kinase.

[9] = Compound toxicity / proliferative blocks in cells; type: cell-based
dP-IRE1α* = target: T2, dP-IRE1α* (Homo sapiens, UniProt O75460); test: XBP1 RNA minisubstrate RNase assay with dephosphorylated IRE1α*; type: biochemical; details: of the levels of IRE1α*; increasing APY29
T2 construct: human IRE1α (residues 469-977, IRE1α*); made in house; host or cells: SF9 insect cells, then λ-phosphatase (NEB) treatment
Description: Reactions were quenched by addition of 4 M urea at different time points and then were subjected to urea 6% PAGE analysis.

IRE1α* (P830L) = target: T3, IRE1α* (P830L) (Homo sapiens, UniProt O75460, P830L); test: IRE1α* (P830L) cancer mutant: kinase, RNase, oligomeric state in vitro; type: biochemical
T3 construct: human IRE1α (residues 469-977, IRE1α*) or equivalent IRE1α mutants; made in house; host or cells: SF9 insect cells, Bac-to-Bac baculovirus
Description: Compared to IRE1α* (WT), IRE1α* (P830L) has reduced kinase activity, as the full-length protein does in vivo. […] IRE1α* (P830L) cannot cleave a FRET-quenched XBP1 RNA mini-substrate (Han et al., 2009), consistent with reduced RNase activity in vivo.
A construct containing the cytosolic kinase and RNase domains of human IRE1α (residues 469-977, IRE1α*) or equivalent IRE1α mutants was expressed in SF9 insect cells using the Bac-to-Bac baculovirus expression system (Invitrogen) as described (Wang et al., 2012). […] (NEB)-treated dephosphorylated IRE1α* (dP-IRE1α*) was also prepared and all the crosslinking experiments were performed as described (Wang et al., 2012). The RNase assay using 5′FAM-3′BHQ-labeled XBP1 single stem-loop minisubstrate (5′FAM-[…]-3′BHQ, from Dharmacon) (SEQ ID NO:22), and the IRE1α*auto-phosphorylation kinase assay were both done as described (Wang et al., 2012). The ability of KIRA6 to inhibit the catalytic activity of Erk2, JNK2, JNK3, PKA, and Piml was determined using previously reported assay conditions (Hill et al., 2012). Internally ^32P-labelled RNAs (mouse XBP1 RNA and Ins2 RNA, as described in (Han et al., 2009), and rat rhodopsin mRNA) were also used as substrates. For time-course determination, IRE1α* proteins (16 nM) were incubated with or without 10 μM 1NM-PP1 for 20 min prior to addition of 20 nM radio-labeled RNAs. Reactions were quenched by addition of 4 M urea at different time points and then were subjected to urea 6% PAGE analysis. […] The cleavage buffer and general manipulation are the same as described (Wang et al., 2012). cDNA for rat rhodopsin was purchased from Invitrogen and amplified by PCR using primers: 5′-[…]-3′ (forward) (SEQ ID NO:23) and 5′-[…]-3′ (reverse) (SEQ ID NO:24). RNA was in vitro transcribed, cleaved by IRE1α*, and the cleavage sites mapped as described (Wang et al., 2012).

[10] = tested on: panel of kinases (Src, Abl); test: Counter-screen against a panel of kinases; type: biochemical; details: 12 kinases in this panel
[11] = varying concentration of the tested inhibitor

T1 sequence (O75460 469-977): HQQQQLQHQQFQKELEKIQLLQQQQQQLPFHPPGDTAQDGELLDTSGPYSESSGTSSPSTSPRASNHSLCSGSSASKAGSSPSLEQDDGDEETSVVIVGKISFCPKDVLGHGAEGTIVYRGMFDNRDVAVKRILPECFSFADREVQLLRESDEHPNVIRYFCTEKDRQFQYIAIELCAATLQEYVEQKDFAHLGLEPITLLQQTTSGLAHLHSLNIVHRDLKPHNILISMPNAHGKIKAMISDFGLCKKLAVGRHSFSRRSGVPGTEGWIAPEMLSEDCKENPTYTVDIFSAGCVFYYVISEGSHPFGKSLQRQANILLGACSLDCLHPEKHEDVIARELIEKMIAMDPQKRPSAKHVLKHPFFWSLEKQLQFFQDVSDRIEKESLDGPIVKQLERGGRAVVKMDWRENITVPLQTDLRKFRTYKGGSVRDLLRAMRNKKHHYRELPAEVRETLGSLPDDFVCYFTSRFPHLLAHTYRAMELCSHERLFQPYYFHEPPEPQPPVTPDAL
T3 sequence (O75460 469-977 P830L): as the sequence (O75460 469-977) above, with P362L counted along it
T2 sequence (O75460 469-977): as the sequence (O75460 469-977) above

Question: For `CNc1nccn2c(C(C)(C)C)nc(-c3ccc(NC(=O)Nc4cccc(C(F)(F)F)c4)c4ccccc34)c12` [(NMe)KIRA6, 1-(4-(8-methylamino-3-tert-butylimidazo[1,5-a]pyrazin-1-yl)naphthalen-1-yl)-3-(3-(trifluoromethyl)phenyl)urea], which “endogenous IRE1α auto-phosphorylation in INS-1 cells” value (endogenous IRE1α [1]; by Tg, compound at 10 μM) is on record?
Answer: inhibits neither output

Question: And the “XBP1 mRNA splicing in INS-1 cells” value (endogenous IRE1α [2]; by Tm, compound at 10 μM)?
Answer: inhibits neither output

Question: Which “RNase activity of kinase-inactive IRE1α mutants” value [3] does the source give for `CC(C)(C)n1nc(Cc2cccc3ccccc23)c2c(N)ncnc21` [1NM-PP1] here?
Answer: able to rescue the RNase activity of IRE1α mutants that lack kinase activity

Question: With `CNc1nccn2c(C(C)C)nc(-c3ccc(NC(=O)Nc4cccc(C(F)(F)F)c4)c4ccccc34)c12` [GP146(NMe), 1-(4-(3-isopropyl-8-(methylamino)imidazo[1,5-a]pyrazin-1-yl)naphthalen-1-yl)-3-(3-(trifluoromethyl)phenyl)urea] as the molecule, how does the “XBP1 mRNA splicing (IRE1α RNase activity) in INS-1 cells” value (endogenous IRE1α [2]; thapsigargin (Tg) 6 nM) read?
Answer: does not block the splicing of XBP1 mRNA

Question: And the “IRE1α* RNase activity (XBP1 RNA cleavage), effect in words” value (shortened to “IRE1α* RNase activity”) (IRE1α* [4])?
Answer: markedly diminished ability to inhibit the RNase activity of IRE1α compared to GP146

Question: For `CC(C)(C)c1nc(-c2ccc(NC(=O)Nc3cccc(F)c3)c3ccccc23)c2c(N)nccn12` [KIRA7], which IC50 (IRE1α* [5]) is on record?
Answer: 35 nM

Question: And the IC50 (IRE1α* [4]; IRE1α*)?
Answer: < 30 nM

Question: What does the source list for `c1cc(Nc2cc(C3CC3)[nH]n2)nc(Nc2ccc3nc[nH]c3c2)n1` [APY29]?
Answer: RNase of yeast and murine IRE1α (yeast and murine IRE1α): directly activate the RNase of yeast and murine IRE1α; IRE1α* oligomerization (oligomer/monomer ratio) (IRE1α* [6]): further enhances; IC50 (IRE1α* [7]): 280 nM; accessibility of Cys572 (IRE1α* [8]): no detectable difference; accessibility of Cys645 to alkylating agents (IRE1α* [8]): highly shielded from alkylating agents; accessibility of Cys715 (rate of alkylation) (IRE1α* [8]): slowing the rate of alkylation; toxicity in cells [9]: pleiotropic toxicity, including proliferative blocks at low micromolar concentrations; dP-IRE1α* cleavage of XBP1 mini-substrate restored, plateau (dP-IRE1α*): ~60%; RNase activity of IRE1α* (P830L) (IRE1α* (P830L)): partially rescue RNase activity; autophosphorylation by IRE1α* (P830L) (IRE1α* (P830L)): suppresses residual autophosphorylation; oligomeric state of IRE1α* (P830L) (IRE1α* (P830L)): increases IRE1α* (P830L)'s oligomeric state; IRE1α* RNase activity (XBP1 RNA cleavage), effect in words (IRE1α* [4]): acting as an activator; RNase competition, IRE1α* under fixed KIRA3 (GP146) (IRE1α* [4]; [11]): progressively reverse IRE1α* RNase inhibition caused by a fixed concentration of KIRA3; RNase competition, IRE1α* under fixed STF-083010 (IRE1α* [4]; [11]): cannot rescue direct inhibition caused by the covalent RNase modifier STF-083010

Question: For `CC(C)c1nc(-c2ccc(NC(=O)Nc3cccc(C(F)(F)F)c3)cc2)c2c(N)nccn12` [KIRA2, 1-(4-(8-amino-3-isopropylimidazo[1,5-a]pyrazin-1-yl)phenyl)-3-(3-(trifluoromethyl)phenyl)urea], which “IRE1α* RNase activity” value (IRE1α* [4]) is on record?
Answer: significant increase in overall potency

Question: Which “endogenous IRE1α auto-phosphorylation in INS-1 cells” value (endogenous IRE1α [1]; ER stress (Tg)) does the source give for `CC(C)c1nc(-c2ccc(NC(=O)Nc3cccc(C(F)(F)F)c3)c3ccccc23)c2c(N)nccn12` [KIRA3, 1-(4-(8-amino-3-isopropylimidazo[1,5-a]pyrazin-1-yl)naphthalen-1-yl)-3-(3-(trifluoromethyl)phenyl)urea] here?
Answer: abrogates IRE1α autophosphorylation

Question: What about the “off-target inhibition in kinase panel” value [10] of the same molecule?
Answer: the only off-target inhibition observed is for the tyrosine kinases Src and Abl

Question: For `CC(C)c1nc(-c2ccc(NC(=O)c3cccc(C(F)(F)F)c3)c3ccccc23)c2c(N)nccn12` [GP146(Am), N-(4-(8-amino-3-isopropylimidazo[1,5-a]pyrazin-1-yl)naphthalen-1-yl)-3-(trifluoromethyl)benzamide], which “IRE1α* RNase activity” value (IRE1α* [4]) is on record?
Answer: markedly diminished ability to inhibit the RNase activity of IRE1α compared to GP146
